# According to patent US9308244B2, “Combination therapy using active immunotherapy” (immatics Biotechnologies GmbH, priority 2007, dated 2016):
# Entries after “also recorded” stand apart in the source; their conditions may differ. Where two headings read alike, the source gives them in different places.
# How the values were obtained:
# [1] = tested on: C57BL/6 T cells; experiment: Mouse mixed lymphocyte reaction (CFSE-labeled C57BL/6 spleen cells vs irradiated BALB/c splenocytes); type: cell-based; conditions: for Cell morphology in flow cytometry (putatively toxic effects): 13 μM sorafenib
# Description: CFSE-labeled spleen cells from C57BL/6 (H2-b) mice were co-cultured with irradiated splenocytes from BALB/c (H2-d) mice, resulting in the strong allogenic response and proliferation of the C57BL/6 T cells against H2-d MHC molecules. The proliferation of the T cells results in a diminished CFSE staining of the divided cells. Percentage of divided cells and their number of divisions can be analyzed by flow cytometry.
# Spleen cells were prepared from 1 C57BL/6 mouse and 1 BALB/c mouse (Harlan Winkelmann GmbH, Borchen, Germany). BALB/c cells were irradiated with 33 Gy. Effectors (C57BL/6) were adjusted to 20 Mio cells/ml. A 2 mM 5(6)-Carboxyfluorescindiacetate-N-succinimidylester (CFSE, Fluka, Buchs, Switzerland) solution in PBS was freshly prepared from a 10 mM DMSO stock solution. The cell suspension was mixed 1:1 with the CFSE solution. After incubation at 37° C. for 4 min, reaction was stopped by addition of fetal calf serum (Biochrom, Berlin, Germany), and free CFSE was washed out. 2×10^5 stimulator cells (BALB/c) were plated into cavities of a 96-well round-bottom plate. 1×10^5 or 2×10^5 CFSE-labeled effector cells and tyrosine kinase inhibitors at two different concentrations were added. Appropriate positive and negative controls were included. All cultures were in 200 μl T-cell medium with 0.1% (v/v) DMSO for 5 or 7 days without further medium change. Thereafter, cells were stained with fluorescently labelled anti-CD4-PerCP and anti-CD8-FITC antibodies (both BD Biosciences, Heidelberg, Germany) and analyzed by flow cytometry.
# The experiment described above was repeated with the exception that a 96-well flat-bottom plate was used for mixed lymphocyte reactions (MLRs), a syngenic control with irradiated C57BL/6 cells was included, more concentrations of inhibitors were assessed, and all groups were analyzed in triplicates.
# During cultivation, half of the medium was replaced with fresh appropriate medium supplemented with final concentrations of tyrosine kinase inhibitors every day, and proliferation was analyzed at day 7 only. Additionally cells were stained for H2-Kb to clearly identify effector cells in a further dimension.
# [2] = tested on: A498 tumor cells; conditions: A498, 24 h; 13 μM sorafenib or 250 nM sunitinib; normal medium control = 100%
# [3] = tested on: A498 and RCC068; experiment: Long-term culture of renal cell carcinoma cell lines in the presence of TKIs; type: cell-based, human; conditions: 13 μM sorafenib, 14 d time point, cells harvested after 10 days
# Description: The human renal cell carcinoma cell lines A498 and RCC068 were cultured in RPMI medium (5% FCS (Biochrom, Berlin, Germany), 5% HS (PromoCell, Heidelberg, Germany)). […] For each time point 3 flasks of each cell line were prepared by containing either 0.1% DMSO alone as a control, 13 μM sorafenib (8.3 μg/ml sorafenib tosylate)+0.1% DMSO, or 250 nM sunitinib (133 ng/ml sunitinib malate).
# A normal medium control sample containing neither DMSO nor TKIs was harvested at 1 h for each cell line.
# [4] = tested on: OVA-001 specific CD8+ T-cells; type: in vivo, C57BL/6 mice; conditions: continuous treatment; for OVA-001 specific CD8+ T-cells, mean: OVA-001 immunized; for Immune response towards OVA-001 compared with vehicle treated controls (in words): both sorafenib dosages, high-dose (80 mg/kg bw) sunitinib, 80 mg/kg
smiles,measurement,setting,value
"CNC(=O)c1cc(Oc2ccc(NC(=O)Nc3ccc(Cl)c(C(F)(F)F)c3)cc2)ccn1 [Sorafenib, 4-(4-{3-[4-Chloro-3-(trifluoromethyl)phenyl]ureido}phenoxy)-N-methylpyrid-ine-2-carboxamide]",CD4+ T-cell proliferation in response to allogenic stimuli (summary),[1],increased
same,CD8+ T-cell proliferation in response to allogenic stimuli (summary),[1],slightly decreased; also recorded: slightly reduced
same,CD8 proliferation,"[1]; first experiment, 1.3 μM sorafenib",only slightly affected
same,Cell morphology in flow cytometry (putatively toxic effects),[1]; first experiment,different morphology
same,Cell morphology in flow cytometry (putatively toxic effects),"[1]; first experiment, listed as sorafenib",clear change in morphology
same,Level inducing toxic effects (dramatically changed morphology of cells in flow cytometry),[1]; second experiment,≥ 6.5 μM
same,Cell morphology (toxic effects of the drug),"[1]; second experiment, 6.5 or 13 μM Sorafenib",severe changes in morphology
same,CD8+ proliferation,"[1]; second experiment, day 7",slight decrease
same,Proliferation of CD4+ cells,"[1]; second experiment, day 7, 1.6 μM sorafenib",significant increase
same,Drug-related toxicity for cells in mixed lymphocyte reactions (summary),[1]; sorafenib: at concentration near the steady-state plasma level of treated patients,toxic
same,% Expression relative to control: ADFP,[2],100%
same,% Expression relative to control: APOL1,[2],71%
same,% Expression relative to control: CCND1,[2],81%
same,% Expression relative to control: GUCY1A3,[2],44%
same,% Expression relative to control: HLA-A,[2],100%
same,% Expression relative to control: HLA-B,[2],87%
same,% Expression relative to control: HLA-C,[2],87%
same,% Expression relative to control: MET,[2],62%
same,% Expression relative to control: MMP7,[2],25%
same,% Expression relative to control: MUC1,[2],107%
same,% Expression relative to control: PSMB8,[2],87%
same,% Expression relative to control: PSMB9,[2],123%
same,% Expression relative to control: TAP1,[2],123%
same,Cell growth in culture,[3],prevented cell growth
same,"OVA-001 specific CD8+ T-cells, mean","[4]; 15 mg/kg bw, n=4",0.72%
same,"OVA-001 specific CD8+ T-cells, mean","[4]; 60 mg/kg bw, n=12",1.81%
same,Immune response towards OVA-001 compared with vehicle treated controls (in words),[4],reduced specific T-cell responses
same,Immune response towards OVA-001 compared with vehicle treated controls (in words),[4]; listed as sorafenib,reduced immune response
